From ChEMBL document CHEMBL5154648, “Antitumor activity of novel POLA1-HDAC11 dual inhibitors” (Eur J Med Chem, 2022)
Each block holds one compound with its values, some of them ahead of it. Activity calls are given as the source filed them. The rule behind the calls is not given here.

What was measured:
[1] = tested on: H460-R9A; experiment: Antiproliferative activity against human H460-R9A cells at 0.75 to 12 uM in combination with SIS17 after 72 hrs by MTT assay; assay type: functional, cell-based; conditions: dose 0.75-12 µM
[2] = tested on: NCI-H460; experiment: Induction of cell cycle arrest in human NCI-H460 cells assessed as accumulation of cells at S phase at 0.12 uM after 72 hrs by flow cytometry (reference value: 32.1%); assay type: functional
[3] = Antitumor activity against human H460-R9A cells xenografted in mouse assessed as tumor growth inhibition at 20 mg/kg, po qd administered […] for 3 to 4 weeks; assay type: functional; conditions: time 3-4 weeks, read-out: TGI
[4] = Induction of cell cycle arrest in human H460-R9A cells assessed as accumulation of cells at S phase at 2.2 uM after 72 hrs by flow cytometry (reference value: 34.5%); assay type: functional
[5] = Toxicity in mouse xenografted with human H460-R9A cells assessed as body weight loss at 50 mg/kg, po qd administered 5 times a week for 3 to 4 weeks in combination with cisplatin at 4 mg/kg, iv administered every 7 days for 4 weeks; assay type: organism-based; conditions: in vivo, time 3-4 weeks
[6] = target: T1, Histone deacetylase 11 (Homo sapiens) (UniProt Q96DB2); experiment: Inhibition of HDAC11 in human MM473 cells at 0.1 to 0.4 uM assessed as increase in p21 level and measured by Western blot analysis; assay type: cell-based; conditions: dose 0.1-0.4 µM
T1 sequence (whole entry): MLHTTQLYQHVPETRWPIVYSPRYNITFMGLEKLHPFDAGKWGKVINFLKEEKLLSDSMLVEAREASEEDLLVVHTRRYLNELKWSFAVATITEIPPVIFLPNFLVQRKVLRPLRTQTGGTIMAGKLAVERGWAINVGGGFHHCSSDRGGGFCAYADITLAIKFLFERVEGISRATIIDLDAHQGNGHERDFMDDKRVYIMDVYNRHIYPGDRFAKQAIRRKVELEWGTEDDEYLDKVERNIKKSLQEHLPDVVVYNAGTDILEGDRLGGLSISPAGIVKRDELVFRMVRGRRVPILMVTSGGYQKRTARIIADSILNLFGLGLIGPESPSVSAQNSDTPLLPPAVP

[7] = tested on: A2780; experiment: Induction of cell cycle arrest in human A2780 cells assessed as accumulation of cells at G2/M phase at 0.6 uM after 72 hrs by flow cytometry (reference value: 15%); assay type: functional
[8] = tested on: NCI-H460; experiment: Down-regulation of POLA1 protein expression in human NCI-H460 cells at 0.25 uM measured by Western blot analysis; assay type: functional, cell-based
[9] = tested on: NCI-H460; experiment: Induction of cell cycle arrest in human NCI-H460 cells assessed as accumulation of cells at G2/M phase at 0.25 uM after 72 hrs by flow cytometry (reference value: 21.1%); assay type: functional
[10] = Induction of cell cycle arrest in human H460-R9A cells assessed as accumulation of cells at S phase at 2.8 uM after 72 hrs by flow cytometry (reference value: 34.5%); assay type: functional
[11] = Induction of cell cycle arrest in human H460-R9A cells assessed as accumulation of cells at G2/M phase at 2.8 uM after 72 hrs by flow cytometry (reference value: 15.4%); assay type: functional
[12] = Induction of cell cycle arrest in human H460-R9A cells assessed as accumulation of cells at sub-G1 phase at 2.8 uM after 72 hrs by flow cytometry (reference value: 1.5%); assay type: functional
[13] = tested on: A2780; experiment: Induction of cell cycle arrest in human A2780 cells assessed as accumulation of cells at G0/1 phase at 0.6 uM after 72 hrs by flow cytometry (reference value: 48.7%); assay type: functional
[14] = tested on: MM473; experiment: Induction of cell cycle arrest in human MM473-Luc cells assessed as accumulation of cells at G0/1 phase at 1.2 uM after 72 hrs by flow cytometry (reference value: 74.7%); assay type: functional
[15] = Toxicity in mouse xenografted with human NCI-H460 cells assessed as body weight loss at 50 mg/kg, po qd administered 5 times a week for 3 to 4 weeks; assay type: organism-based; conditions: in vivo, time 3-4 weeks
[16] = tested on: MM473; experiment: Induction of cell cycle arrest in human MM473-Luc cells assessed as accumulation of cells at G2/M phase at 1.4 uM after 72 hrs by flow cytometry (reference value: 11.7%); assay type: functional
[17] = tested on: NCI-H460; experiment: Induction of cell cycle arrest in human NCI-H460 cells assessed as accumulation of cells at G2/M phase at 0.26 uM after 72 hrs by flow cytometry (reference value: 21.1%); assay type: functional
[18] = tested on: A2780; experiment: Induction of cell cycle arrest in human A2780 cells assessed as accumulation of cells at G0/1 phase at 0.95 uM after 72 hrs by flow cytometry (reference value: 48.7%); assay type: functional

SMILES: O=C(O)C=Cc1ccc(-c2ccc(O)c(C34CC5CC(CC(C5)C3)C4)c2)cc1
Activity [1]: Active
Activity [2]: 79.7%
inhibition in vivo at 20 mg/kg [3]: 0%
Activity [4]: 63.4%

inhibition [6]: Active
SMILES: O=C(O)C=Cc1ccc(-c2ccc(OCC(=O)NO)c(C34CC5CC(CC(C5)C3)C4)c2)cc1
Activity [5]: 0%
Activity [7]: 6.5%
Activity [8]: Active
Activity [9]: 2.8%
Activity [10]: 37.4%
Activity [11]: 12.9%
Activity [12]: 37.8%
Activity [13]: 14.6%
Activity [14]: 23%
Activity [15]: 0%

SMILES: CC(Oc1ccc(-c2ccc(C=CC(=O)O)cc2)cc1C12CC3CC(CC(C3)C1)C2)C(=O)NO (stereo not drawn)
Activity [16]: 16.1%
Activity [17]: 7.8%
Activity [18]: 10.8%
